Results taken from ChEMBL document CHEMBL6083277, “Discovery of SZJK-0421: A Novel Potent, Low Toxicity, Selective Second Generation of CRM1 Inhibitor for the Treatment of Both Hematological and Solid Tumors” (J Med Chem, 2024).
Activity calls are given as the source filed them. The rule behind the calls is not given here.

What was measured:
[1] = Metabolic stability in human liver microsomes assessed as half life measured upto 60 mins in presence of NADPH by LC/MS-MS analysis; format: ADME, Microsome
[2] = Antiproliferative activity against human ARP-1 cells assessed as inhibition of cell growth incubated for 72 hrs by celltiter-glo assay; format: functional, cell-based; details: ARP-1, 72 h
[3] = Toxicity in NOD-SCID mouse assessed as reduction in intact nuclei in tumor at 60 mg/kg, po measured every 2 days for 21 days by H and E staining based analysis; format: organism-based; details: in vivo, 504 h, time 21 day
KMS-11 = experiment: Antiproliferative activity against human KMS-11 cells assessed as inhibition of cell growth incubated for 72 hrs by celltiter-glo assay; format: functional, cell-based; details: KMS-11, 72 h
[4] = Toxicity in BALB/c mouse assessed as side effect at 60 mg/kg, po administered once daily for 21 days; format: organism-based; details: in vivo, 504 h, time 21 day
[5] = Oral bioavailability in male Sprague-Dawley rat at 30 mg/kg measured upto 30 hrs by LC-MS/MS analysis; format: ADME, organism-based; details: in vivo
MM1.S [6] = experiment: Antiproliferative activity against human MM1.S cells assessed as inhibition of cell growth incubated for 72 hrs by celltiter-glo assay; format: functional, cell-based
MM1.S [7] = experiment: Inhibition of CRM1 protein expression in human MM1.S cells at 0.25 to 1.25 uM by Western blot analysis; format: functional, cell-based; details: dose 0.25-1.25 µM, time 2-24 hrs
MM1.S [8] = experiment: Antitumor activity against human MM1.S cells xenografted in NOD-SCID mouse assessed as tumor growth inhibition at 30 mg/kg, po qd measured upto 21 days; format: functional; details: 504 h, time <= 21 day, read-out: TGI
[9] = Half life in male Sprague-Dawley rat at 15 mg/kg, po measured upto 30 hrs by LC-MS/MS analysis; format: ADME, organism-based; details: in vivo
[10] = AUC in male Sprague-Dawley rat plasma at 10 mg/kg, IG measured at 6 hrs by LC-MS/MS analysis; format: ADME, organism-based; details: po
[11] = Toxicity in NOD-SCID mouse assessed as reduction in cell density in tumor at 60 mg/kg, po measured every 2 days for 21 days by H and E staining based analysis; format: organism-based; details: in vivo, 504 h, time 21 day
[12] = Metabolic stability in dog liver microsomes assessed as intrinsic clearance measured upto 60 mins in presence of NADPH by LC/MS-MS analysis; format: ADME, Canis lupus familiaris, Microsome; details: read-out: CLH
[13] = target: Ran-specific GTPase-activating protein (Homo sapiens, UniProt P43487); experiment: Inhibition of RANBP1 nuclear export in human U2OS cells assessed as increase in fluorescence intensity measured for 15 mins by DAPI staining based fluorescence microscopic analysis; format: cell-based
MM1.S [14] = experiment: Induction of apoptosis in human MM1.S cells at 0.5 to 1 uM incubated for 48 hrs by Annexin V-FITC/PI staining based flow cytometry analysis; format: functional, cell-based; details: dose 0.5-1 µM
[15] = Toxicity in NOD-SCID mouse assessed as decrease in villus height to crypt depth ratio at 15 to 60 mg/kg, po measured every 2 days for 21 days by H and E staining based analysis; format: organism-based; details: in vivo, 504 h, dose 15-60 mg/kg, time 21 day
[16] = AUC (0 to t) in male Sprague-Dawley rat at 2 mg/kg, iv measured upto 30 hrs by LC-MS/MS analysis; format: ADME, organism-based; details: in vivo
[17] = Oral bioavailability in male Sprague-Dawley rat at 10 mg/kg measured upto 30 hrs by LC-MS/MS analysis; format: ADME, organism-based; details: in vivo
[18] = Tmax in male Sprague-Dawley rat at 15 mg/kg, po measured upto 30 hrs by LC-MS/MS analysis; format: ADME, organism-based; details: in vivo
[19] = AUC (0 to infinity) in male Sprague-Dawley rat at 15 mg/kg, po measured upto 30 hrs by LC-MS/MS analysis; format: ADME, organism-based; details: in vivo
MV4-11 = experiment: Antiproliferative activity against human MV4-11 cells assessed as inhibition of cell growth incubated for 72 hrs by celltiter-glo assay; format: functional, cell-based; details: MV4-11, 72 h
[20] = AUC (0 to infinity) in male Sprague-Dawley rat at 2 mg/kg, iv measured upto 30 hrs by LC-MS/MS analysis; format: ADME, organism-based; details: in vivo
[21] = Metabolic stability in mouse liver microsomes assessed as half life measured upto 60 mins in presence of NADPH by LC/MS-MS analysis; format: ADME, Microsome
MM1.S [22] = experiment: Inhibition of CRM1 protein expression in human MM1.S cells by Western blot analysis; format: functional, cell-based; details: dose 0.25-1.25 µM
MM1.S [23] = experiment: Antitumor activity against human MM1.S cells xenografted in NOD-SCID mouse assessed as tumor growth inhibition at 15 mg/kg, po qd measured upto 21 days; format: functional; details: 504 h, time <= 21 day, read-out: TGI
[24] = Metabolic stability in rat liver microsomes assessed as half life measured upto 60 mins in presence of NADPH by LC/MS-MS analysis; format: ADME, Microsome
LoVo = experiment: Antiproliferative activity against human LoVo cells assessed as inhibition of cell growth incubated for 72 hrs by celltiter-glo assay; format: functional, cell-based
[25] = Half life in male Sprague-Dawley rat at 10 mg/kg, po measured upto 30 hrs by LC-MS/MS analysis; format: ADME, organism-based; details: in vivo
SW872 = experiment: Antiproliferative activity against human SW872 cells assessed as inhibition of cell growth incubated for 72 hrs by celltiter-glo assay; format: functional, cell-based; details: SW872, 72 h
[26] = Toxicity in NOD-SCID mouse assessed as appearance of spindle shape in tumor at 60 mg/kg, po measured every 2 days for 21 days by H and E staining based analysis; format: organism-based; details: in vivo, 504 h, time 21 day
[27] = AUC (0 to infinity) in male Sprague-Dawley rat at 10 mg/kg, po measured upto 30 hrs by LC-MS/MS analysis; format: ADME, organism-based; details: in vivo
HCT-116 = experiment: Antitumor activity against human HCT-116 cells xenografted in NOD-SCID mouse assessed as tumor growth inhibition at 60 mg/kg, po measured every 2 days for 21 days; format: functional, organism-based; details: time 21.0 day
[28] = Toxicity in Sprague-Dawley rat at 30 mg/kg, po measured upto 48 hrs; format: organism-based; details: in vivo
[29] = Toxicity in BALB/c mouse assessed as shortened intestine at 90 to 120 mg/kg, po administered once daily for 21 days; format: organism-based; details: in vivo, 504 h, dose 90-120 mg/kg, time 21 day
[30] = Toxicity in NOD-SCID mouse implanted with human HCT-116 cells assessed as body weight loss at 60 mg/kg, po measured every 2 days for 21 days; format: organism-based; details: in vivo, 504 h, time 21 day
ARH-77 = experiment: Antitumor activity against human ARH-77 cells xenografted in NOD-SCID mouse at 15 to 60 mg/kg, po measured every 2 days for 21 days; format: functional, organism-based; details: dose 15-60 mg/kg, time 21.0 day
[31] = Toxicity in BALB/c mouse assessed as weight loss at 60 mg/kg, po administered once daily for 21 days; format: organism-based; details: in vivo, 504 h, time 21 day
[32] = Toxicity in NOD-SCID mouse assessed as reduction in number of tumor cells at 60 mg/kg, po measured every 2 days for 21 days by H and E staining based analysis; format: organism-based; details: in vivo, 504 h, time 21 day
[33] = Toxicity in NOD-SCID mouse assessed as loss of crypt depth in intestine at 15 to 60 mg/kg, po measured every 2 days for 21 days by H and E staining based analysis; format: organism-based; details: in vivo, 504 h, dose 15-60 mg/kg, time 21 day
[34] = Metabolic stability in human liver microsomes assessed as intrinsic clearance measured upto 60 mins in presence of NADPH by LC/MS-MS analysis; format: ADME, Microsome; details: read-out: CLH

Ran-specific GTPase-activating protein, sequence (P43487 whole entry): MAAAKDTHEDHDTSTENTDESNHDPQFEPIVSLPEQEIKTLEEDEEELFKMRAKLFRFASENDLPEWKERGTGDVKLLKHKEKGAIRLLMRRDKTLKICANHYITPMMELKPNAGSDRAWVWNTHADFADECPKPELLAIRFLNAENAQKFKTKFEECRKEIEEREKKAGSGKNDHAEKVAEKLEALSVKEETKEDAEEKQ

SMILES: CONC(=O)/C(=C/n1cnc(-c2cc(C(F)(F)F)cc(C(F)(F)F)c2)n1)c1cncnc1
- half-life [1]: > 2 h
- IC50 [2]: 652 nM
- Activity [3]: Non-toxic
- IC50 (KMS-11): 739 nM
- Activity [4]: Non-toxic
- bioavailability [5]: 46.3%
- IC50 (MM1.S [6]): 87.1 nM
- inhibition (MM1.S [7]): Time-dependent-effect
- inhibition in vivo at 30 mg/kg (MM1.S [8]): 86.6%
- half-life [9]: 4 h
- AUC at 6 h [10]: 2480 ng·h/mL
- Activity [11]: Non-toxic
- microsomal CLint [12]: 2.6 µL/min/mg
- IC50 [13]: 620 nM
- Activity (MM1.S [14]): Active
- Activity [15]: Non-toxic
- AUC(0-t) at 30 h [16]: 1300 ng·h/mL
- bioavailability [17]: 56%
- Tmax [18]: 0.25 h
- AUC(0-inf) [19]: 5830 ng·h/mL
- IC50 (MV4-11): 43.5 nM
- AUC(0-inf) [20]: 1490 ng·h/mL
- half-life [21]: > 2 h
- inhibition (MM1.S [22]): Dose-dependent-effect
- inhibition in vivo at 15 mg/kg (MM1.S [23]): 80.5%
- half-life [24]: > 2 h
- IC50 (LoVo): 2040 nM
- half-life [25]: 5.6 h
- IC50 (SW872): 753 nM
- Activity [26]: Non-toxic
- AUC(0-inf) [27]: 4180 ng·h/mL
- TGI (HCT-116): Active
- Activity [28]: Non-toxic
- Activity [29]: Non-toxic
- Activity [30]: Non-toxic
- Activity (ARH-77): Active
- Activity [31]: Non-toxic
- Activity [32]: Non-toxic
- Activity [33]: Non-toxic
- microsomal CLint [34]: 3.6 µL/min/mg
